Measured values: US6506550B1, “Method of including apoptosis by reducing the level of thiamin” (Brandeis University, priority 1997, dated 2003)
Entries after “also recorded” stand apart in the source; their conditions may differ. Where two headings read alike, the source gives them in different places.

Legend:
[1] = room temperature; cited from earlier work
[2] = cited from earlier work
[3] = tested on: rat glioma C6 cells; assay: Induction of apoptosis in rat glioma C6 cells; type: cell-based; conditions: for concentration active in inducing apoptosis: in vitro
[4] = tested on: mice; conditions: cited from earlier work
[5] = extremely high doses; cited from earlier work
[6] = tested on: Walker's sarcoma; conditions: rats; cited from earlier work
[7] = in vivo; cited from earlier work
[8] = estimated (Woolley and White, 1943); cited from earlier work
[9] = tested on: advanced ovarian cancer; conditions: cited from earlier work

For `Cc1ncc(C[n+]2csc(CCO)c2C)c(N)n1` [thiamin], the “pH at which the methylene bridge is easily cleaved” value [1] is given as no less than 9 pH, the “half-life in the body” value ([2]; in vivo) is given as 220 to 432 h and the “oral amount above which thiamin is not absorbed” value ([2]; oral, humans, excess excreted in urine and feces) is given as 3-10 mg per dose. The “excess thiamin concentration that prevented induction of apoptosis by freshly added agent” value ([3]; Naegleria agent at dilution 10^−5, control medium 199) was 0.5-2 mg per liter, the “time to improvement after thiamin” value ([4]; mice that could no longer stand upright) was “one” and the “time to no discernible symptoms after thiamin” value ([4]; mouse, in vivo) was no more than 20 h. The “blood level causing respiratory paralysis” value [5] was ≥ 70 mg of thiamin per liter of blood.
With `Cc1nc(N)cc(Cl)n1` [CMP, 4-Amino-6-chloro-2-methylpyrimidine] the “induction of apoptosis by Naegleria agent pretreated with CMP” value ([3]; CMP 2.5, 5, 10 mM, 16 h 25 °C, extract diluted to 10^−5, assay day 6 (FIG. 3)) was “prevented the induction of apoptosis; also recorded: did not induce apoptosis”.
In the case of `Cc1ncc(C[n+]2csc(CCO)c2C)c(=O)[nH]1` [oxythiamin], the “decrease in growth of Walker's sarcoma” value [6] is given as 45% and the “passage of the blood-brain barrier” value [7] is given as “do not pass”.
In the case of `Cc1ncc(C[n+]2cccc(CCO)c2C)c(N)n1` [pyrithiamin], the “concentration active in inducing apoptosis” value [3] is listed as no less than 10 µM, the “molecules required to nullify one molecule of thiamin” value [8] is listed as “about 40 molecules” and the “passage of the blood-brain barrier” value [7] is listed as “does”.
In the case of `CCCc1ncc(C[n+]2ccccc2C)c(N)n1` [Amprolium], the “concentration active in inducing apoptosis” value [3] is reported as no less than 600 µM.
In the case of `N.N.[Cl][Pt][Cl]` [cisplatin], the survival ([9]; intraperitoneal injection) is given as 49 months and the survival ([9]; intravenous injection) is given as 41 months.
